US20250361259A1, “AMORPHOUS FORM OF REDUCED ß-NICOTINAMIDE MONONUCLEOTIDE CALCIUM SALT, AND PREPARATION METHOD AND USE THEREFOR” (EffePharm (Shanghai) Co., Ltd., priority 2023, published 2025)
Like-named read-outs stand apart in the source and are kept apart here.

Experiments:
[1] = Stability comparison, solids placed openly in a stability test chamber at 25° C. and 65% RH (purity by HPLC, appearance); assay type: physicochemical; conditions: open, calcium salt
Description: NMNH is the reduced form of NMN, sensitive to air, easily oxidized, and unstable, making it unsuitable for long-term storage and market promotion. WO2023160405(A1) reported the NMNH disodium salt compound and its crystalline and amorphous forms. […] Such stability fails to meet the shelf-life requirements for commercial products, hindering market promotion. The NMNH calcium salt amorphous solids A/B/C/D were each placed openly in a stability test chamber at 25° C. and 65% RH to evaluate their stability, yielding the data shown in Table 1 and Table 2.

[2] = Hygroscopicity study (water content, KF) at 25° C., 65% RH; assay type: physicochemical
Description: The NMNH calcium salt amorphous solids A/B/C/D were each placed openly in a stability test chamber at 25° C. and 65% RH to evaluate their stability, yielding the data shown in Table 1 and Table 2. […] The amorphous solid of NMNH disodium salt is more unstable in the air. After 1 day of storage, it absorbs water from powder to oil, and the purity drops from 99.30% to 99.02%.

[3] = 25° C., 65% RH, according to WO2023160405(A1), cited from earlier work
[4] = according to WO2023160405(A1); cited from earlier work

Structure (SMILES)	Purity (HPLC, area %) ([1]; 0 day)	Purity (HPLC, area %) ([1]; 5 days)	Purity (HPLC, area %) ([1]; 60 days)	Water content of NMNH calcium salt amorphous solid (KF) ([2]; 0 day)	Water content of NMNH calcium salt amorphous solid (KF) ([2]; 5 days)	Water content of NMNH calcium salt amorphous solid (KF) ([2]; 60 days)	other results
NC(=O)C1=CN([C@@H]2O[C@H](COP(=O)(O)O)[C@@H](O)[C@H]2O)C=CC1.[Ca+2] [NMNH calcium salt Amorphous form A, reduced β-nicotinamide mononucleotide calcium salt]	99.51%	99.50%	99.50%	0.8%	0.8%	0.9%	
NC(=O)C1=CN([C@@H]2O[C@H](COP(=O)(O)O)[C@@H](O)[C@H]2O)C=CC1.[Ca+2] [NMNH calcium salt Amorphous form B, reduced β-nicotinamide mononucleotide calcium salt]	99.28%	99.28%	99.28%	1.3%	1.3%	1.3%	
NC(=O)C1=CN([C@@H]2O[C@H](COP(=O)(O)O)[C@@H](O)[C@H]2O)C=CC1.[Ca+2] [NMNH calcium salt Amorphous form C, reduced β-nicotinamide mononucleotide calcium salt]	99.14%	99.14%	99.13%	1.5%	1.6%	1.5%	
NC(=O)C1=CN([C@@H]2O[C@H](COP(=O)(O)O)[C@@H](O)[C@H]2O)C=CC1.[Ca+2] [NMNH calcium salt Amorphous form D, reduced β-nicotinamide mononucleotide calcium salt]	99.50%	99.49%	99.49%	1.9%	1.9%	1.9%	
NC(=O)C1=CN([C@@H]2O[C@H](COP(=O)([O-])[O-])[C@@H](O)[C@H]2O)C=CC1.[Na+].[Na+] [NMNH disodium salt Amorphous form, NMNH disodium salt]							Purity (HPLC, area %) ([3]; 0 day, disodium salt): 99.30%; Purity (HPLC, area %) ([3]; 0 day, listed as NMNH disodium salt amorphous powder, disodium salt): 99.30%; Purity (HPLC, area %) ([3]; 0 day, listed as amorphous solid of NMNH disodium salt, disodium salt): 99.30%; Appearance after storage (powder to oil) ([3]; 1 day): oil; Purity (HPLC, area %) ([3]; 1 day, disodium salt): 99.02%; Purity (HPLC, area %) ([3]; 1 day, listed as NMNH disodium salt amorphous powder, disodium salt): 99.02%; Purity (HPLC, area %) ([3]; 1 day, listed as amorphous solid of NMNH disodium salt, disodium salt): 99.02%
NC(=O)C1=CN([C@@H]2O[C@H](COP(=O)([O-])[O-])[C@@H](O)[C@H]2O)C=CC1.[Na+].[Na+] [NMNH disodium salt Crystal form A, NMNH disodium salt]							Purity (HPLC, area %) ([3]; 0 day, disodium salt): 99.33%; Purity (HPLC, area %) ([3]; 0 day, listed as NMNH disodium salt crystal form A, disodium salt): 99.33%; Purity (HPLC, area %) ([3]; 0 day, listed as NMNH disodium salt crystalline Form A solid, disodium salt): 99.33%; Purity (HPLC, area %) ([3]; 1 day, disodium salt): 99.27%; Purity (HPLC, area %) ([3]; 5 days): 99.01%
NC(=O)C1=CN([C@@H]2O[C@H](COP(=O)([O-])[O-])[C@@H](O)[C@H]2O)C=CC1.[Na+].[Na+] [NMNH disodium salt crystal form B, NMNH disodium salt]							Solid form change when stored in the air [4]: absorb water and transform into crystal form A
